Columns and labels:
fibroblasts = experiment: cell viability of fibroblasts, Cell Counting Kit-8; format: cell-based; settings: DMEM with 10% fetal bovine serum, 48 h, effective concentration range (FIG. 4)
Description: The polypeptide (prepared by Method 2) of the disclosure was added at different concentrations to Dulbecco's Modified Eagle's Medium (DMEM) containing fetal bovine serum (10% by volume) and used to culture fibroblasts. Cells were seeded at 10,000 cells per well in 96-well plates, incubated at 37° C. with a medium containing polypeptides at various concentrations as described above, and the cell viability was determined after 48 h using the Cell Counting Kit-8 method.

Pseudomonas aeruginosa = experiment: antibacterial effect, polypeptide co-cultured with microbe; format: cell-based; settings: polypeptide 250 μg/mL; 10^8 CFU/mL; co-cultured at 37° C. for 24 hours
[1] = tested on: methicillin-resistant Staphylococcus aureus; experiment: antibacterial effect against drug-resistant bacteria; format: cell-based; settings: 100 μg/mL
Description: The above polypeptide (prepared by Method 1) was added in methicillin-resistant Staphylococcus aureus solutions at concentrations of 10^8 and 10^9 CFU/mL respectively according to the polypeptide concentration gradient, and then co-cultured at 37° C. for 24 hours. The polypeptide was effective in killing methicillin-resistant Staphylococcus aureus in the effective concentration range. The antimicrobial rate of 100 μg/mL of polypeptide solution could reach up to 100% (FIG. 2) and 98% or more (FIG. 3) respectively.

rats [2] = experiment: safety (acute systemic inflammation) after caudal vein injection, blood routine examination; format: in vivo
Description: (§1) The polypeptide (prepared by Method 1) of the present disclosure was dissolved in physiological saline at a concentration of 1 mg/mL and injected into rats through the caudal vein at a dose of 8 mg/kg.

Candida albicans = experiment: antibacterial effect, polypeptide co-cultured with microbe; format: cell-based; settings: polypeptide 250 μg/mL; 10^8 CFU/mL; co-cultured at 37° C. for 24 hours
Escherichia coli = experiment: as above; format: cell-based; settings: polypeptide 250 μg/mL; 10^8 CFU/mL; co-cultured at 37° C. for 24 hours
Staphylococcus aureus = experiment: as above; format: cell-based; settings: polypeptide 250 μg/mL; 10^8 CFU/mL; co-cultured at 37° C. for 24 hours
rats [3] = experiment: in vivo hemocompatibility after caudal vein injection, blood routine examination
Description: as §1

[4] = MRSA 10^8 CFU/mL, 37° C. 24 hours (FIG. 2)
[5] = MRSA 10^9 CFU/mL, 37° C. 24 hours (FIG. 3)
[6] = 1 mg/mL in physiological saline, caudal vein, 8 mg/kg, 24 h
[7] = rat blood, 24 h after 8 mg/kg caudal vein injection (FIG. 5)
[8] = rat blood 24 h after 8 mg/kg caudal vein injection

Q: With “hyperbranched polylysine [polypeptide (prepared by Method 2)]” as the molecule, how does the “cytotoxicity (cell viability)” value (fibroblasts) read?
A: The value was “not cytotoxic”.

Q: What does the source list for “hyperbranched polylysine [polypeptide (prepared by Method 1)]”?
A: antibacterial effect (Pseudomonas aeruginosa): 100%; antimicrobial rate [1, 4]: 100%; antimicrobial rate [1, 5]: ≥ 98%; behavior of rats (rats [2]; [6]): no abnormal behavior; survival of rats (rats [2]; 1 mg/mL in physiological saline, caudal vein, 8 mg/kg, after 24 h): still alive; inflammatory features (rats [2]; rat blood routine examination, 24 h after 8 mg/kg caudal vein injection): no inflammatory features; cell concentration of lymphocytes (Lym) (rats [2]; [7]): in the normal range; cell concentration of monocytes (Mon) (rats [2]; [7]): in the normal range; cell concentration of neutrophils (Neu) (rats [2]; [7]): in the normal range; cell concentration of white blood cells (WBC) (rats [2]; [7]): in the normal range; antibacterial effect (Candida albicans): 100%; antibacterial effect (Escherichia coli): 100%; antibacterial effect (Staphylococcus aureus): 100%; behavior of rats (rats [3]; [6]): no abnormal behavior; survival of rats (rats [3]; [6]): survived; concentration of hemoglobin (HGB), in words (rats [3]; [8]): in the normal range; concentration of platelet (PLT), in words (rats [3]; [8]): in the normal range; concentration of red blood cell (RBC), in words (rats [3]; [8]): in the normal range; Red blood cell concentration (rats [3]; rat blood 24 h after injection at 1 mg/mL (8 mg/kg), normal range 6.36-9.42): 6.3 ± 0.3 10^12/L; Hemoglobin content (rats [3]; rat blood 24 h after injection at 1 mg/mL (8 mg/kg), normal range 110-143): 141.8 ± 10.1 g/L; Platelet concentration (rats [3]; rat blood 24 h after injection at 1 mg/mL (8 mg/kg), normal range 450-1590): 847.0 ± 140.1 10^9/L

Q: For `CC1(C)S[C@@H]2[C@H](NC(=O)Cc3ccccc3)C(=O)N2[C@H]1C(=O)O` [penicillin G, reference compound], which antimicrobial rate [1, 4] is on record?
A: Its antimicrobial rate is “less than 10%”.

Q: And the antimicrobial rate [1, 5]?
A: The antimicrobial rate was “less than 10%”.

Reference: US20250090627A1, “NUTRITIONAL POLYPEPTIDE HAVING BRANCHED-STRUCTURE WITH EFFICIENT BROAD-SPECTRUM ANTIBACTERIAL AND ANTIFUNGAL FUNCTIONS” (ZHEJIANG UNIVERSITY, priority 2022, published 2025)
